Series [1] can be described thus: Vm value of the compound. Type of series: ADME.
In series [2] the test system is NC(CCC(=O)NC(CSC(=O)N(O)c1ccccc1)C(=O)NCC(=O)O)C(=O)O. Particulars: Bos taurus.
Description: Michaelis-Menten constant was tested for inhibitory activity against bovine liver glyoxalase II

For orientation: Km means the concentration of substrate that gives half-maximal velocity.

In series [1], `NC(CCC(=O)NC(CSC(=O)N(O)c1ccc(Cl)cc1)C(=O)NCC(=O)O)C(=O)O` (centres undefined) came in with a Vm of 1.5e-05. Regarding “Hydroxyacylglutathione hydrolase, mitochondrial (Homo sapiens) (from UniProt Q16775)”, the Km in series [2] was 13 µM.

On to `NC(CCC(=O)NC(CSC(=O)N(O)c1ccccc1)C(=O)NCC(=O)O)C(=O)O` (centres undefined), for which the Vm in series [1] is 4.6e-06. For the compound `NC(CCC(=O)NC(CSC(=O)N(O)c1ccc(Br)cc1)C(=O)NCC(=O)O)C(=O)O` (centres undefined), the Vm in series [1] worked out at 2.1e-05.

The values above are taken from ChEMBL document CHEMBL1127571, “S-(N-aryl-N-hydroxycarbamoyl)glutathione derivatives are tight-binding inhibitors of glyoxalase I and slow substrates for glyoxalase II” (J Med Chem, 1994).
